The assay deals with Carbonic Anhydrase (CA). The experiment in a line: Surface plasmon resonance binding of compound to biotinylated CA-immobilized substrate. Conditions: for Binding signal (binding observed or not) / Amount of 100 nM Hydrochlorothiazide bound: 100 nM in 1×PBS (pH 7.4); for Binding signal (binding observed or not): all the substrates; for Binding activity / Mean binding activity: 100 nM; for Binding activity: one-to-one binding assumed, molecular weight conversion; for Mean binding activity: mean of the three substrates (7450, 3400, 1600 RV CA). Background: SPR reads the build-up and loss of mass on a sensor chip optically.

Each structure is given as a SMILES string.

In the case of `NS(=O)(=O)c1cc2c(cc1Cl)NCNS2(=O)=O` [Hydrochlorothiazide], the “Binding signal (binding observed or not)” value is reported as “binding signal was observed”. Moreover, the “Amount of 100 nM Hydrochlorothiazide bound” value (amount of CA immobilized 1600 RV, Comparative example (without calibration)) amounted to 7.1 RV. Moreover, the “Amount of 100 nM Hydrochlorothiazide bound” value (amount of CA immobilized 1600 RV, Example (with calibration of baseline, third curve approximation)) came to 7.3 RV. The “Amount of 100 nM Hydrochlorothiazide bound” value (amount of CA immobilized 3400 RV, Example (with calibration of baseline, third curve approximation)) is on record as 16.3 RV. Besides, the “Amount of 100 nM Hydrochlorothiazide bound” value (amount of CA immobilized 7450 RV, Comparative example (without calibration)) came out at 25.4 RV. In addition, where the note is “amount of CA immobilized 7450 RV, Example (with calibration of baseline, third curve approximation)”, the “Amount of 100 nM Hydrochlorothiazide bound” value is 31.7 RV. Also, under “CA immobilized 1600 RV, with calibration”, the Binding activity stood at 45.9%. The compound further registered a Binding activity (CA immobilized 1600 RV, without calibration) of 44.7%. For the same compound, the Binding activity (CA immobilized 3400 RV, with calibration) was 48.2%. The same compound gave a Binding activity (CA immobilized 3400 RV, without calibration) of 40.6%. In addition, the Binding activity (CA immobilized 7450 RV, with calibration) stood at 42.8%. The same compound returned a Binding activity (CA immobilized 7450 RV, without calibration) of 34.4%. The Mean binding activity (with calibration) amounted to 45.6%. Where the note is “without calibration”, the Mean binding activity is listed as 39.9%.

Turning to `O=C(O)c1cccnc1` [Nicotinic acid], the “Binding signal (binding observed or not)” value is on record as “no binding was observed”.

For the origin of these results see patent US20090068746A1, “METHOD FOR MEASURING INTERACTION BETWEEN PHYSIOLOGICALLY ACTIVE SUBSTANCE AND TEST SUBSTANCE” (FUJIFILM Corporation, priority 2007, published 2009).
